This passage reports GI50 results from patent US20260062422A1 (Halda Therapeutics OpCo, Inc., priority 2022, published 2026).

The subject of one assay is VCaP cells. Nature of the assay: Cellular growth inhibition assay for VCaP cells, CellTiter-Glo. The assay is classed as cell-based, human. As to conditions: 72 hours treatment, CellTiter-Glo 2.0. In a few lines: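 GI50 values come from four-parameter curve fits of luminescence data normalized to a zero baseline. Compound, in medium with 0.5% DMSO, was added one day after plating and left for 72 h before CellTiter-Glo 2.0 addition.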
Background: In ATP-based viability assays light output follows the ATP content of the culture.

The next assay concerns T47D cells. Description: Cellular growth inhibition assay for T47D cells, CellTiter-Glo. The assay is classed as cell-based, human. As to conditions: 72 hours treatment, CellTiter-Glo 2.0 cell viability. The method, boiled down: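 Cells are plated at 3000/well and allowed 24 h before treatment. Test compound in medium containing 0.5% DMSO is then added, with DMSO-only wells as negative control, and plates are incubated 72 h at 37 °C. ATP luminescence (CellTiter-Glo 2.0) is then fitted to four parameters to derive GI50.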

Assay [1] has as its system T-Rex 293 cell line SC3 cells lacking increased expression of androgen receptor protein. Nature of the assay: Cellular growth inhibition, T-Rex 293 SC3 cells without doxycycline, CellTiter-Glo. In kind it is cell-based. As to conditions: T-Rex 293 SC3 cells not exposed to doxycycline, CellTiter-Glo 2.0. In a few lines:
(§1)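 Doxycycline-inducible androgen receptor T-Rex 293 clone SC3, seeded at 2500/well in phenol red-free DMEM with 10% charcoal-dextran FBS, without doxycycline or with 10 ng/mL to induce receptor. Compound added after 24 h (0.5% DMSO), 72 h at 37 °C; CellTiter-Glo 2.0 luminescence, GI50 by four-parameter fit.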

Assay [2] deals with T-Rex 293 cell line SC3 cells having increased expression of androgen receptor protein due to exposure to doxycycline. Description: Cellular growth inhibition, T-Rex 293 SC3 cells with doxycycline (androgen receptor induced), CellTiter-Glo. In kind it is cell-based. As to conditions: T-Rex 293 SC3 cells with 10 ng/mL doxycycline (increased androgen receptor expression). The method, boiled down:
as §1

In general, GI50 refers to the concentration at which growth is held to half of that of the control.

A value given as a limit tells only on which side of the number the result lay.

With `COCC[C@@H]1N=C(c2ccc(OC3CC4(CCCN(c5ncc(C(=O)N[C@H]6C(C)(C)[C@@H](Oc7ccc(C#N)c(Cl)c7)C6(C)C)cn5)C4)C3)cc2)c2c(sc(C)c2C)-n2c(C)nnc21` [Compound I-569], the GI50 was below 500 nM in the assay with VCaP cells (Homo sapiens, VCaP, 72 h); above 3000 nM in the assay with T47D cells (Homo sapiens, T47D, 72 h); above 3000 nM in assay [1] (72 h); below 500 nM in assay [2] (72 h).

Consider `Cc1sc2c(c1C)C(c1ccc(-c3csc(OC4CCN(c5ncc(C(=O)N[C@H]6C(C)(C)[C@H](Oc7ccc(C#N)c(Cl)c7)C6(C)C)cn5)CC4)n3)cc1)=N[C@@H](Cc1ncco1)c1nnc(C)n1-2` [Compound I-408], for which the GI50 in the assay on VCaP cells (Homo sapiens, VCaP, 72 h) was 500 to 1500 nM; in the assay with T47D cells (Homo sapiens, T47D, 72 h), below 500 nM; in assay [1] (72 h) it was above 3000 nM; in assay [2] (72 h), below 500 nM.

As to `Cc1sc2c(c1C)C(c1ccc(-c3cc(OC4CCN(c5ncc(C(=O)N[C@H]6C(C)(C)[C@H](Oc7ccc(C#N)c(Cl)c7)C6(C)C)cn5)CC4)cs3)cc1)=N[C@@H](Cc1ncco1)c1nnc(C)n1-2` [Compound I-443], the GI50 in the assay on VCaP cells (Homo sapiens, VCaP, 72 h) was below 500 nM; in the assay on T47D cells (Homo sapiens, T47D, 72 h), above 3000 nM; in assay [1] (72 h), above 3000 nM; in assay [2] (72 h), below 500 nM.

`Cc1sc2c(c1C)C(c1ccc(O[C@@H]3CCC4(C3)CN(c3ncc(C(=O)N[C@H]5C(C)(C)[C@H](Oc6ccc(C#N)c(Cl)c6)C5(C)C)cn3)C4)cc1)=N[C@@H](Cc1ncco1)c1nnc(C)n1-2` [Compound I-191]: the GI50 was below 500 nM in the assay on VCaP cells (Homo sapiens, VCaP, 72 h); below 500 nM with T47D cells (Homo sapiens, T47D, 72 h); below 500 nM in assay [1] (72 h); below 500 nM in assay [2] (72 h).

As to `Cc1sc2c(c1C)C(c1ccc(Oc3ncc(C(=O)N[C@H]4C(C)(C)[C@H](Oc5ccc(C#N)c(Cl)c5)C4(C)C)cn3)cc1)=N[C@@H](Cc1ncco1)c1nnc(C)n1-2` [Compound I-205], the GI50 in the assay on VCaP cells (Homo sapiens, VCaP, 72 h) was below 500 nM; in the assay on T47D cells (Homo sapiens, T47D, 72 h) it was 500 to 1500 nM; in assay [1] (72 h) it was 500 to 1500 nM; in assay [2] (72 h), below 500 nM.

`[2H]C([2H])(c1ccc(C2=N[C@@H](Cc3ncco3)c3nnc(C)n3-c3sc(C)c(C)c32)cc1)N1CC[C@@]2(CCCN(c3ncc(C(=O)N[C@H]4C(C)(C)[C@H](Oc5ccc(C#N)c(Cl)c5)C4(C)C)cn3)C2)C1` [Compound I-433]: the GI50 in the assay on VCaP cells (Homo sapiens, VCaP, 72 h) is below 500 nM; in the assay with T47D cells (Homo sapiens, T47D, 72 h) it was 500 to 1500 nM; in assay [1] (72 h), below 500 nM; in assay [2] (72 h) it was below 500 nM.

For `Cc1sc2c(c1C)C(c1ccc(CCC(=O)N3CCN(c4ncc(C(=O)N[C@H]5C(C)(C)[C@H](Oc6ccc(C#N)c(Cl)c6)C5(C)C)cn4)CC3)cc1)=N[C@@H](Cc1ncco1)c1nnc(C)n1-2` [Compound I-287], the GI50 in the assay with VCaP cells (Homo sapiens, VCaP, 72 h) is below 500 nM; in the assay with T47D cells (Homo sapiens, T47D, 72 h) it was below 500 nM; in assay [1] (72 h) it was below 500 nM; in assay [2] (72 h), below 500 nM.

As for `Cc1sc2c(c1C)C(c1ccc(N[C@@H]3CCC[C@H](Nc4ncc(C(=O)N[C@H]5C(C)(C)[C@H](Oc6ccc(C#N)c(Cl)c6)C5(C)C)cn4)C3)cc1)=NC(Cc1ncco1)c1nnc(C)n1-2` (stereo partly shown) [Compound I-653], the GI50 in the assay on VCaP cells (Homo sapiens, VCaP, 72 h) was below 500 nM; with T47D cells (Homo sapiens, T47D, 72 h) it was below 500 nM; in assay [1] (72 h), below 500 nM; in assay [2] (72 h) it was below 500 nM.

Turning to `Cc1sc2c(c1C)C(c1ccc(C(=O)N3CCC(N(C)c4ncc(C(=O)N[C@H]5C(C)(C)[C@H](Oc6ccc(C#N)c(Cl)c6)C5(C)C)cn4)CC3)cc1)=N[C@@H](Cc1ncco1)c1nnc(C)n1-2` [Compound I-293], the GI50 in the assay on VCaP cells (Homo sapiens, VCaP, 72 h) was above 3000 nM; in the assay on T47D cells (Homo sapiens, T47D, 72 h), above 3000 nM; in assay [1] (72 h) it was above 3000 nM; in assay [2] (72 h), below 500 nM.

Take `Cc1sc2c(c1C)C(c1ccc(CCCOC3CCN(c4ncc(C(=O)N[C@H]5C(C)(C)[C@H](Oc6ccc(C#N)c(Cl)c6)C5(C)C)cn4)CC3)cc1)=C[C@H](Cc1ccncn1)c1nnc(C)n1-2` [Compound I-376]: the GI50 (with VCaP cells; with T47D cells; in assay [1] (72 hours); in assay [2] (72 hours)) was below 500 nM in each case.

Turning to `Cc1sc2c(c1C)C(c1ccc(COC3CC4(CCCN(c5ncc(C(=O)N[C@H]6C(C)(C)[C@H](Oc7ccc(C#N)c(Cl)c7)C6(C)C)cn5)C4)C3)cc1)=N[C@@H](C)c1nnc(C)n1-2` [Compound I-395], the concentration for 50% growth inhibition (GI50) with VCaP cells (Homo sapiens, VCaP, 72 h) was below 500 nM; in the assay on T47D cells (Homo sapiens, T47D, 72 h), below 500 nM; in assay [1] (72 h), above 3000 nM; in assay [2] (72 h) it was below 500 nM.

Regarding `Cc1sc2c(c1C)C(c1ccc(C(=O)N3CC[C@]4(CCCN(c5ncc(C(=O)N[C@H]6C(C)(C)[C@H](Oc7ccc(C#N)c(Cl)c7)C6(C)C)cn5)C4)C3)cc1)=N[C@@H](Cc1ncco1)c1nnc(C)n1-2` [Compound I-258], the GI50 with VCaP cells (Homo sapiens, VCaP, 72 h) is above 3000 nM; in the assay with T47D cells (Homo sapiens, T47D, 72 h) it was 1500 to 3000 nM; in assay [1] (72 h), above 3000 nM; in assay [2] (72 h), below 500 nM.

As for `COCC[C@@H]1N=C(c2ccc(OC3CC4(CCCN(c5ncc(C(=O)N[C@H]6C(C)(C)[C@@H](Oc7ccc(C#N)c(Cl)c7)C6(C)C)cn5)C4)C3)cc2)c2c(sc(C)c2C)-n2c(C)nnc21` [Compound I-570], the GI50 in the assay with VCaP cells is below 500 nM; in the assay on T47D cells, above 3000 nM; in assay [1] (72 hours), above 3000 nM; in assay [2] (72 hours), below 500 nM.

For `Cc1sc2c(c1C)C(c1ccc(C#CCC3CCN(c4ncc(C(=O)N[C@H]5C(C)(C)[C@H](Oc6ccc(C#N)c(Cl)c6)C5(C)C)cn4)CC3)cc1)=N[C@@H](Cc1ncco1)c1nnc(C)n1-2` [Compound I-57], the GI50 is below 500 nM in the assay with VCaP cells (Homo sapiens, VCaP, 72 h); below 500 nM with T47D cells (Homo sapiens, T47D, 72 h); below 500 nM in assay [1] (72 h); below 500 nM in assay [2] (72 h).

As to `Cc1sc2c(c1C)C(c1ccc(C[C@H]3CCCN(c4ncc(C(=O)N[C@H]5C(C)(C)[C@H](Oc6ccc(C#N)c(Cl)c6)C5(C)C)cn4)C3)cc1)=N[C@@H](Cc1ncco1)c1nnc(C)n1-2` [Compound I-297], the GI50 was below 500 nM with VCaP cells (Homo sapiens, VCaP, 72 h); below 500 nM in the assay with T47D cells (Homo sapiens, T47D, 72 h); 500 to 1500 nM in assay [1] (72 h); below 500 nM in assay [2] (72 h).

Turning to `CC[C@@H]1N=C(c2ccc(CC3CC4(CCN(c5ncc(C(=O)N[C@H]6C(C)(C)[C@H](Oc7ccc(C#N)c(Cl)c7)C6(C)C)cn5)CC4)C3)cc2)c2c(sc(C)c2C)-n2c(C)nnc21` [Compound I-596], the GI50 in the assay with VCaP cells (Homo sapiens, VCaP, 72 h) is below 500 nM; in the assay on T47D cells (Homo sapiens, T47D, 72 h), above 3000 nM; in assay [1] (72 h) it was above 3000 nM; in assay [2] (72 h), below 500 nM.

Take `Cc1sc2c(c1C)C(c1ccc(CC3CC4(CCN(c5ccc(C(=O)N[C@H]6C(C)(C)[C@H](Oc7ccc(C#N)c(Cl)c7)C6(C)C)cn5)CC4)C3)cc1)=N[C@@H](Cc1ncco1)c1nnc(C)n1-2` [Compound I-548]: the GI50 in the assay with VCaP cells (Homo sapiens, VCaP, 72 h) was 500 to 1500 nM; in the assay on T47D cells (Homo sapiens, T47D, 72 h), below 500 nM; in assay [1] (72 h) it was below 500 nM; in assay [2] (72 h), below 500 nM.

On to `Cc1sc2c(c1C)C(c1ccc(NCC3CCN(c4ncc(C(=O)N[C@H]5C(C)(C)[C@H](Oc6ccc(C#N)c(Cl)c6)C5(C)C)cn4)CC3)cc1)=N[C@@H](Cc1ncco1)c1nnc(C)n1-2` [Compound I-636], for which the GI50 was below 500 nM in the assay with VCaP cells (Homo sapiens, VCaP, 72 h); below 500 nM in the assay with T47D cells (Homo sapiens, T47D, 72 h); below 500 nM in assay [1] (72 h); below 500 nM in assay [2] (72 h).

As for `Cc1sc2c(c1C)C(c1ccc(C3(C4CC5(CCN(c6ncc(C(=O)N[C@H]7C(C)(C)[C@H](Oc8ccc(C#N)c(Cl)c8)C7(C)C)cn6)CC5)C4)CC3)cc1)=N[C@@H](Cc1ncco1)c1nnc(C)n1-2` [Compound I-525], the concentration for 50% growth inhibition (GI50) in the assay with VCaP cells (Homo sapiens, VCaP, 72 h) was below 500 nM; with T47D cells (Homo sapiens, T47D, 72 h), below 500 nM; in assay [1] (72 h), above 3000 nM; in assay [2] (72 h), below 500 nM.
